Test results: PubChem BioAssay AID328 (DTP/NCI, 2004)
Values joined by “and” are separate entries in the source; they are usually repeats but may differ in a detail not shown here. Equal values may be shown once. Toxic doses and inconclusive results are not listed.

System: BDF1 mice, P388 leukemia ip, median survival T/C
Assay: NCI In Vivo Anticancer Drug Screen. Data for tumor model P388 Leukemia (intraperitoneal) in B6D2F1 (BDF1) mice
Conditions: endpoint: median survival time, higher = longer survival
Procedure, shortened: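 Mice carrying the transplantable tumour receive compound or vehicle. Survival is followed in each arm, and the treated measure is divided by the vehicle measure.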

[1] = dose: 3.0 mg/kg/injection, schedule: Q04DX003 (ip), vehicle: saline with Tween-80
[2] = dose: 25.0 mg/kg/injection, schedule: Q01DX009 (ip), vehicle: saline with Tween-80
[3] = dose: 25.0 mg/kg/injection, schedule: Q04DX003 (ip), vehicle: saline with Tween-80
[4] = dose: 12.5 mg/kg/injection, schedule: Q01DX009 (ip), vehicle: saline with Tween-80

## Cc1nc2c(=O)n(C)c(=O)n(C)c2n1C
dose: 50.0 mg/kg/injection, schedule: Q04DX003 (ip), vehicle: saline with Tween-80
  T/C: 100 % of control
dose: 100.0 mg/kg/injection, schedule: Q04DX003 (ip), vehicle: saline with Tween-80
  T/C: 90 % of control
dose: 200.0 mg/kg/injection, schedule: Q04DX003 (ip), vehicle: saline with Tween-80
  T/C: 100 % of control

## O=NN(CCCl)C(=O)NC1CSCSC1
dose: 0.7 mg/kg/injection, schedule: Q01DX009 (ip), vehicle: saline with Tween-80
  T/C: 92 % of control
dose: 1.7 mg/kg/injection, schedule: Q01DX009 (ip), vehicle: saline with Tween-80
  T/C: 151 % of control
dose: 2.6 mg/kg/injection, schedule: Q01DX009 (ip), vehicle: saline with Tween-80
  T/C: 159 % of control
[1]
  T/C: 119 % of control
dose: 4.0 mg/kg/injection, schedule: Q01DX009 (ip), vehicle: saline with Tween-80
  T/C: 250 % of control and 192 % of control
dose: 5.0 mg/kg/injection, schedule: Q04DX003 (ip), vehicle: saline with Tween-80
  T/C: 152 % of control
dose: 6.0 mg/kg/injection, schedule: Q01DX009 (ip), vehicle: saline with Tween-80
  T/C: 230 % of control and 250 % of control
dose: 8.0 mg/kg/injection, schedule: Q04DX003 (ip), vehicle: saline with Tween-80
  T/C: 185 % of control
dose: 9.0 mg/kg/injection, schedule: Q01DX009 (ip), vehicle: saline with Tween-80
  T/C: 187 % of control
dose: 12.0 mg/kg/injection, schedule: Q01DX009 (ip), vehicle: saline with Tween-80
  T/C: 184 % of control
dose: 12.0 mg/kg/injection, schedule: Q04DX003 (ip), vehicle: saline with Tween-80
  T/C: 272 % of control and 285 % of control
dose: 18.0 mg/kg/injection, schedule: Q04DX003 (ip), vehicle: saline with Tween-80
  T/C: 204 % of control
[2]
  T/C: 90 % of control
[3]
  T/C: 240 % of control and 172 % of control
dose: 37.0 mg/kg/injection, schedule: Q04DX003 (ip), vehicle: saline with Tween-80
  T/C: 272 % of control and 95 % of control

## COc1ccc(CNCC(OC)OC)cc1O
dose: 100.0 mg/kg/injection, schedule: Q01DX001 (ip), vehicle: saline with Tween-80
  T/C: 99 % of control
dose: 200.0 mg/kg/injection, schedule: Q01DX001 (ip), vehicle: saline with Tween-80
  T/C: 102 % of control

## O=C(O)/C=C/c1c[nH]c(=O)[nH]c1=O
dose: 25.0 mg/kg/injection, schedule: Q04DX003 (ip), vehicle: Klucel (hydroxypropylcellulose) (HPC)
  T/C: 101 % of control
dose: 50.0 mg/kg/injection, schedule: Q04DX003 (ip), vehicle: Klucel (hydroxypropylcellulose) (HPC)
  T/C: 101 % of control
dose: 100.0 mg/kg/injection, schedule: Q04DX003 (ip), vehicle: Klucel (hydroxypropylcellulose) (HPC)
  T/C: 115 % of control

## O=P(Oc1ccc(OP(=O)(N2CC2)N2CC2)cc1)(N1CC1)N1CC1
dose: 50.0 mg/kg/injection, schedule: Q04DX003 (ip), vehicle: saline
  T/C: 168 % of control
dose: 75.0 mg/kg/injection, schedule: Q04DX003 (ip), vehicle: saline
  T/C: 177 % of control
dose: 115.0 mg/kg/injection, schedule: Q04DX003 (ip), vehicle: saline with Tween-80
  T/C: 190 % of control
dose: 175.0 mg/kg/injection, schedule: Q04DX003 (ip), vehicle: saline with Tween-80
  T/C: 254 % of control
dose: 264.0 mg/kg/injection, schedule: Q04DX003 (ip), vehicle: saline with Tween-80
  T/C: 150 % of control
dose: 400.0 mg/kg/injection, schedule: Q04DX003 (ip), vehicle: saline with Tween-80
  T/C: 254 % of control

## CC1(C)SC2C(NC(=O)Cc3ccccc3)C(=O)N2C1C(=O)O (stereo not drawn)
dose: 100.0 mg/kg/injection, schedule: Q01DX009 (ip), vehicle: saline
  T/C: 90 % of control
dose: 400.0 mg/kg/injection, schedule: Q01DX009 (ip), vehicle: saline
  T/C: 100 % of control

## CNc1ncnc2nc(OC)[nH]c12
dose: 0.78 mg/kg/injection, schedule: Q01DX009 (ip), vehicle: saline with Tween-80
  T/C: 95 % of control
dose: 1.56 mg/kg/injection, schedule: Q01DX009 (ip), vehicle: saline with Tween-80
  T/C: 100 % of control
dose: 3.13 mg/kg/injection, schedule: Q01DX009 (ip), vehicle: saline with Tween-80
  T/C: 98 % of control
dose: 6.25 mg/kg/injection, schedule: Q01DX009 (ip), vehicle: saline with Tween-80
  T/C: 101 % of control

## Oc1ccc2ccccc2c1/C=N\Sc1ccc(Cl)cc1
[4]
  T/C: 90 % of control
[2]
  T/C: 96 % of control
dose: 50.0 mg/kg/injection, schedule: Q01DX009 (ip), vehicle: saline with Tween-80
  T/C: 106 % of control

## Cn1c(=O)[nH]c2ccccc2c1=O
dose: 100.0 mg/kg/injection, schedule: Q01DX001 (ip), vehicle: Klucel (hydroxypropylcellulose) (HPC)
  T/C: 104 % of control
dose: 200.0 mg/kg/injection, schedule: Q01DX001 (ip), vehicle: Klucel (hydroxypropylcellulose) (HPC)
  T/C: 104 % of control
dose: 400.0 mg/kg/injection, schedule: Q01DX001 (ip), vehicle: Klucel (hydroxypropylcellulose) (HPC)
  T/C: 107 % of control

## COc1cc(C=Nc2ccc(C(=O)O)cc2)ccc1N(CCCl)CCCl
dose: 1.3 mg/kg/injection, schedule: Q04DX003 (ip), vehicle: saline with Tween-80
  T/C: 115 % of control
dose: 2.0 mg/kg/injection, schedule: Q04DX003 (ip), vehicle: saline with Tween-80
  T/C: 111 % of control
[1]
  T/C: 162 % of control
dose: 7.0 mg/kg/injection, schedule: Q04DX003 (ip), vehicle: saline with Tween-80
  T/C: 150 % of control and 158 % of control
dose: 11.0 mg/kg/injection, schedule: Q04DX003 (ip), vehicle: saline with Tween-80
  T/C: 170 % of control
[4]
  T/C: 195 % of control
dose: 16.0 mg/kg/injection, schedule: Q04DX003 (ip), vehicle: saline with Tween-80
  T/C: 187 % of control
dose: 16.5 mg/kg/injection, schedule: Q04DX003 (ip), vehicle: saline with Tween-80
  T/C: 169 % of control
[3]
  T/C: 196 % of control
dose: 37.5 mg/kg/injection, schedule: Q04DX003 (ip), vehicle: saline with Tween-80
  T/C: 107 % of control

## Cc1ccc2c[n+]3cc4ccccc4cc3cc2c1
dose: 1.56 mg/kg/injection, schedule: Q01DX009 (ip), vehicle: saline
  T/C: 113 % of control
dose: 4.5 mg/kg/injection, schedule: Q04DX003 (ip), vehicle: saline
  T/C: 113 % of control
dose: 4.6 mg/kg/injection, schedule: Q01DX009 (ip), vehicle: saline
  T/C: 150 % of control
dose: 9.0 mg/kg/injection, schedule: Q04DX003 (ip), vehicle: saline
  T/C: 86 % of control

## CCC1CN2CCc3cc(O)c(O)cc3C2CC1CC1NCCc2c1[nH]c1ccc(O)cc21 (stereo not drawn)
dose: 1.0 mg/kg/injection, schedule: Q01DX009 (ip), vehicle: Klucel (hydroxypropylcellulose) (HPC)
  T/C: 161 % of control
dose: 2.0 mg/kg/injection, schedule: Q01DX009 (ip), vehicle: Klucel (hydroxypropylcellulose) (HPC)
  T/C: 163 % of control

## CCCCCCCCCCCSCCCCCCCCCCC
dose: 100.0 mg/kg/injection, schedule: Q01DX009 (ip), vehicle: saline with Tween-80
  T/C: 100 % of control
dose: 200.0 mg/kg/injection, schedule: Q01DX009 (ip), vehicle: saline with Tween-80
  T/C: 100 % of control
dose: 400.0 mg/kg/injection, schedule: Q01DX009 (ip), vehicle: saline with Tween-80
  T/C: 100 % of control

## CCC[CH2][Sn]([CH2]CCC)([CH2]CCC)[S]C(=S)NCCNC(=S)[S][Sn]([CH2]CCC)([CH2]CCC)[CH2]CCC
dose: 0.78 mg/kg/injection, schedule: Q01DX010 (ip), vehicle: saline
  T/C: 113 % of control
dose: 1.56 mg/kg/injection, schedule: Q01DX010 (ip), vehicle: saline
  T/C: 109 % of control
dose: 3.13 mg/kg/injection, schedule: Q01DX010 (ip), vehicle: saline
  T/C: 109 % of control
